# pKd: −log10 of the molar value.
# Tests used:
# BRPF1B = molecular target: T1, BRPF1B (Homo sapiens, UniProt P55201); experiment: BROMOscan bromodomain competitive binding assay (DiscoveRx), BRPF1B; conditions: BROMOscan platform, n = 2 unless cell says n = 4
# T1 construct: purchased DiscoveRx (BROMOscan platform); host or cells: E. coli host derived from BL21 (T7 phage)
# T1 sequence (P55201 628-732 limits assumed): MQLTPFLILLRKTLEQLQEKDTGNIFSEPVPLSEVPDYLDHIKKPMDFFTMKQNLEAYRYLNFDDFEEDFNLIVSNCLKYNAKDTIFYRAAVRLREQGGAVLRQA
# Procedure: (§1) Compounds were tested using the commercially available BROMOscan™ Platform (DiscoveRx): http://www.discoverx.com/technologies-platforms/competitive-binding-technology/bromoscan-technology-platform/bromoscan-assay-process.
# (§2) Bromodomain assays. T7 phage strains displaying bromodomains were grown in parallel in 24-well blocks in an E. coli host derived from the BL21 strain. E. coli were grown to log-phase and infected with T7 phage from a frozen stock (multiplicity of infection=0.4) and incubated with shaking at 32° C. until lysis (90-150 minutes). The lysates were centrifuged (5,000×g) and filtered (0.2 μm) to remove cell debris. […] The liganded beads were blocked with excess biotin and washed with blocking buffer (SeaBlock (Pierce), 1% BSA, 0.05% Tween 20, 1 mM DTT) to remove unbound ligand and to reduce non-specific phage binding. […] Test compounds were prepared as 1000× stocks in 100% DMSO and subsequently diluted 1:10 in monoethylene glycol (MEG) to create stocks at 100× the screening concentration (resulting stock solution is 10% DMSO/90% MEG). The compounds were then diluted directly into the assays such that the final concentration of DMSO and MEG were 0.1% and 0.9%, respectively. All reactions were performed in polystyrene 96-well plates in a final volume of 0.135 ml. […] The bromodomain concentration in the eluates was measured by qPCR.
# (§3) An 11-point 3-fold serial dilution of each test compound was prepared in 100% DMSO at 1000× final test concentration. This serial is then diluted to 100× in ethylene glycol and subsequently diluted to 1× in the assay (final DMSO concentration=0.1%, Ethylene glycol concentration=0.9%). Most Kds were determined using a compound top concentration=10,000 nM.
# (§4) Binding constants (Kds) were calculated with a standard dose-response curve using the Hill equation: […]
# (§5) The Hill Slope was set to −1. Curves were fitted using a non-linear least square fit with the Levenberg-Marquardt algorithm.
# (§6) BROMOscan™ uses the same assay technology as KINOMEscan™. For a more detailed description of this assay technology, see Fabian et al.12
# BRD1 = molecular target: T2, BRD1 (Homo sapiens, UniProt O95696); experiment: BROMOscan bromodomain competitive binding assay (DiscoveRx), BRD1; conditions: BROMOscan platform, n = 2
# T2 construct: purchased DiscoveRx (BROMOscan platform); host or cells: E. coli host derived from BL21 (T7 phage)
# T2 sequence (O95696 562-666 limits assumed): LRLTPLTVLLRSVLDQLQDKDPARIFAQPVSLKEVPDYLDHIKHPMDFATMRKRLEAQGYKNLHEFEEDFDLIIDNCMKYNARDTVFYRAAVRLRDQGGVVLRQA
# Procedure: as §1, §2, §3, §4, §5, §6
# BRPF3 = molecular target: T3, BRPF3 (Homo sapiens, UniProt Q9ULD4); experiment: BROMOscan bromodomain competitive binding assay (DiscoveRx), BRPF3; conditions: BROMOscan platform, n = 2
# T3 construct: purchased DiscoveRx (BROMOscan platform); host or cells: E. coli host derived from BL21 (T7 phage)
# T3 sequence (Q9ULD4 589-693 limits assumed): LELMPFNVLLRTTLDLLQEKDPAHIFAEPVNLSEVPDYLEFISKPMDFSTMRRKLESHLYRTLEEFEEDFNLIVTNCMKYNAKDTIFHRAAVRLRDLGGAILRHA
# Procedure: as §1, §2, §3, §4, §5, §6
SMILES,pKd (BRPF1B),pKd (BRD1),pKd (BRPF3)
"Cn1c(=O)ccc2cc(NS(=O)(=O)c3ccccc3)ccc21 [Compound 1, N-(1-methyl-2-oxo-1,2-dihydroquinolin-6-yl)benzenesulfonamide]",7.19,5.85,5.12
"Cn1c(=O)ccc2cc(NS(=O)(=O)c3ccccc3C#N)ccc21 [Compound 2, 2-cyano-N-(1-methyl-2-oxo-1,2-dihydroquinolin-6-yl)benzenesulfonamide]",6.37,5.77,–
"Cn1c(=O)ccc2cc(NS(=O)(=O)c3cccc(C#N)c3)ccc21 [Compound 3, 3-cyano-N-(1-methyl-2-oxo-1,2-dihydroquinolin-6-yl)benzenesulfonamide]",7.25,6.57,–
"CCOc1cc2c(ccc(=O)n2C)cc1NS(=O)(=O)c1ccc(C#N)cc1 [Compound 13, 4-cyano-N-(7-ethoxy-1-methyl-2-oxo-1,2-dihydroquinolin-6-yl)benzenesulfonamide]",7.26,–,–
"COc1c(NS(=O)(=O)c2ccc(C#N)cc2)ccc2c1ccc(=O)n2C [Compound 16, 4-cyano-N-(5-methoxy-1-methyl-2-oxo-1,2-dihydroquinolin-6-yl)benzenesulfonamide]",7.34,6.68,–
"Cn1c(=O)ccc2c(Br)c(NS(=O)(=O)c3ccc(C#N)cc3)ccc21 [Compound 18, N-(5-bromo-1-methyl-2-oxo-1,2-dihydroquinolin-6-yl)-4-cyanobenzenesulfonamide]",6.68,6.08,–
"COc1cc2c(cc1NS(=O)(=O)c1ccc(N)cc1)cc(C)c(=O)n2C [Compound 25, 4-amino-N-(7-methoxy-1,3-dimethyl-2-oxo-1,2-dihydroquinolin-6-yl)benzenesulfonamide]",6.38,–,–
"CN(c1ccc2c(ccc(=O)n2C)c1)S(=O)(=O)c1ccc(C#N)cc1 [Compound 34, 4-cyano-N-methyl-N-(1-methyl-2-oxo-1,2-dihydroquinolin-6-yl)benzenesulfonamide]",6.04,5.17,–
"CCn1c(=O)ccc2cc(NS(=O)(=O)c3ccc(C#N)cc3)ccc21 [Compound 35, 4-cyano-N-(1-ethyl-2-oxo-1,2-dihydroquinolin-6-yl)benzenesulfonamide]",7.33,6.41,–
"Cn1c(=O)ccc2cc(S(=O)(=O)Nc3ccc(C#N)cc3)ccc21 [Compound 38, N-(4-cyanophenyl)-1-methyl-2-oxo-1,2-dihydroquinoline-6-sulfonamide]",7.00,6.82,–
"CCc1cc2cc(NS(=O)(=O)c3ccc(C#N)cc3OC)ccc2n(C)c1=O [Compound 45, 4-cyano-N-(3-ethyl-1-methyl-2-oxo-1,2-dihydroquinolin-6-yl)-2-methoxybenzenesulfonamide]",7.18,–,–
"COc1cc2c(cc1NS(=O)(=O)c1ccc(C#N)cc1)c(C)c(C)c(=O)n2C [Compound 50, 4-cyano-N-(7-methoxy-1,3,4-trimethyl-2-oxo-1,2-dihydroquinolin-6-yl)benzenesulfonamide]",6.85,–,–
"Cn1c(=O)ccc2cc(NS(C)(=O)=O)ccc21 [Compound 51, N-(1-methyl-2-oxo-1,2-dihydroquinolin-6-yl)methanesulfonamide]",5.66,–,–
"CCS(=O)(=O)Nc1ccc2c(ccc(=O)n2C)c1 [Compound 52, N-(1-methyl-2-oxo-1,2-dihydroquinolin-6-yl)ethanesulfonamide]",5.92,–,–
"CC(C)S(=O)(=O)Nc1ccc2c(ccc(=O)n2C)c1 [Compound 53, N-(1-methyl-2-oxo-1,2-dihydroquinolin-6-yl)propane-2-sulfonamide]",5.96,–,–
"Cn1c(=O)ccc2cc(NS(=O)(=O)C3CC3)ccc21 [Compound 54, N-(1-methyl-2-oxo-1,2-dihydroquinolin-6-yl)cyclopropanesulfonamide]",6.28,–,–
"Cn1c(=O)ccc2cc(NS(=O)(=O)C3CCCCC3)ccc21 [Compound 55, N-(1-methyl-2-oxo-1,2-dihydroquinolin-6-yl)cyclohexanesulfonamide]",6.42,–,–
"COc1cc(C#N)ccc1S(=O)(=O)N(C)c1ccc2c(c1)cc(C)c(=O)n2C [Compound 59, 4-cyano-N-(1,3-dimethyl-2-oxo-1,2-dihydroquinolin-6-yl)-2-methoxy-N-methylbenzenesulfonamide]",7.28,–,–
"COc1cc2c(cc1NS(=O)(=O)c1ccccc1OC(F)(F)F)cc(C)c(=O)n2C [Compound 67, N-(7-methoxy-1,3-dimethyl-2-oxo-1,2-dihydroquinolin-6-yl)-2-(trifluoromethoxy)benzenesulfonamide]",7.32,–,–

# Now those with a higher pKd (BRPF1B), led by results:
pKd (BRPF1B),pKd (BRD1),pKd (BRPF3),SMILES
7.36,6.64,–,"Cn1c(=O)ccc2cc(NS(=O)(=O)c3ccc(Cl)c(Cl)c3)ccc21 [Compound 9, 3,4-dichloro-N-(1-methyl-2-oxo-1,2-dihydroquinolin-6-yl)benzenesulfonamide]"
7.54,6.42,5.66,"COc1cc2c(ccc(=O)n2C)cc1NS(=O)(=O)c1ccccc1 [Compound 10, N-(7-methoxy-1-methyl-2-oxo-1,2-dihydroquinolin-6-yl)benzenesulfonamide]"
7.41,–,–,"CC(C)Oc1cc2c(ccc(=O)n2C)cc1NS(=O)(=O)c1ccc(C#N)cc1 [Compound 14, 4-cyano-N-(7-isopropoxy-1-methyl-2-oxo-1,2-dihydroquinolin-6-yl)benzenesulfonamide]"
7.77,6.72,6.23,"COc1cc2c(cc1NS(=O)(=O)c1ccccc1)cc(C)c(=O)n2C [Compound 21, N-(7-methoxy-1,3-dimethyl-2-oxo-1,2-dihydroquinolin-6-yl)benzenesulfonamide]"
7.82,7.00,6.55,"COc1cc2c(cc1NS(=O)(=O)c1ccc(C#N)cc1)cc(C)c(=O)n2C [Compound 22, 4-cyano-N-(7-methoxy-1,3-dimethyl-2-oxo-1,2-dihydroquinolin-6-yl)benzenesulfonamide]"
7.62,6.82,–,"Cc1cc(=O)n(C)c2ccc(NS(=O)(=O)c3ccc(C#N)cc3)cc12 [Compound 30, 4-cyano-N-(1,4-dimethyl-2-oxo-1,2-dihydroquinolin-6-yl)benzenesulfonamide]"
8.00,–,–,"COc1cc(C#N)ccc1S(=O)(=O)Nc1cc(F)c2c(c1)cc(C)c(=O)n2C [Compound 49, 4-cyano-N-(8-fluoro-1,3-dimethyl-2-oxo-1,2-dihydroquinolin-6-yl)-2-methoxybenzenesulfonamide]"
7.51,–,–,"Cc1cc2cc(NS(=O)(=O)C3CCCCC3)ccc2n(C)c1=O [Compound 56, N-(1,3-dimethyl-2-oxo-1,2-dihydroquinolin-6-yl)cyclohexanesulfonamide]"
8.30,–,–,"COc1cc(C(N)=O)ccc1S(=O)(=O)Nc1ccc2c(c1)cc(C)c(=O)n2C [Compound 62, 4-(N-(1,3-dimethyl-2-oxo-1,2-dihydroquinolin-6-yl)sulfamoyl)-3-methoxybenzamide]"
8.05,6.89,–,"COc1ccccc1S(=O)(=O)Nc1ccc2c(c1)cc(C)c(=O)n2C [Compound P-001, N-(1,3-dimethyl-2-oxo-1,2-dihydroquinolin-6-yl)-2-methoxybenzenesulfonamide, reference compound]"
